Measurements as given in patent US9115101B2 (Genentech, Inc., priority 2012, dated 2015).

Biological target: T1, RORc ligand binding domain (Homo sapiens, UniProt P51449)
T1 construct: host or cells: E. coli
T1 sequence (P51449 269-508 limits assumed): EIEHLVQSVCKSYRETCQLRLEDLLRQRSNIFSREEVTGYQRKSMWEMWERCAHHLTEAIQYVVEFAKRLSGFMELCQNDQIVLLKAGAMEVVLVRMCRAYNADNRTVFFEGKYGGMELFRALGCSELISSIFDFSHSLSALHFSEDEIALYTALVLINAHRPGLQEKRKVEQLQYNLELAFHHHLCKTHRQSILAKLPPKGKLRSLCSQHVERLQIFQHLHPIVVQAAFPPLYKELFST
Test: In Vitro RORc Ligand Binding Assay (25-[3H]hydroxycholesterol radioligand filtration)
Details: In Vitro RORc Ligand Binding Assay; Table 4; read-out: RORc IC50

First: CC(=O)N1CCN(c2ccc(CN3CCOCC(c4ccccc4)S3(=O)=O)c(F)c2)CC1 (single isomer, unassigned) [Example 23, 1-{4-[4-(4,4-Dioxo-3-phenyl-[1,4,5]oxathiazepan-5-ylmethyl)-3-fluoro-phenyl]-piperazin-1-yl}-ethanone]
Second: CC(=O)N1CCN(c2ccc(CN3C[C@H](C)OCC(c4ccccc4)S3(=O)=O)c(F)c2)CC1 (single isomer, unassigned) [Example 28]
The IC50 of the first is 2.3-fold lower: 45 nM for the first, 104 nM for the second.

First: CC(=O)N1CCN(c2ccc(CN3[C@@H](C)COCC(c4ccccc4)S3(=O)=O)c(F)c2)CC1 (single isomer, unassigned) [Example 24]
Second: CC(=O)N1CCN(c2ccc(CN3[C@H](C)COCC(c4ccccc4)S3(=O)=O)c(F)c2)CC1 (single isomer, unassigned) [Example 26]
The IC50 of the first is 11-fold lower: 182 nM for the first, 2000 nM for the second.

Compared with CC(=O)N1CCN(c2ccc(CN3[C@@H](C)COCC(c4ccccc4)S3(=O)=O)c(F)c2)CC1 (single isomer, unassigned) [Example 25], CC(=O)N1CCN(c2ccc(CN3[C@H](C)COCC(c4ccccc4)S3(=O)=O)c(F)c2)CC1 (single isomer, unassigned) [Example 27] is 5.9-fold higher in IC50: 32 nM for the first, 188 nM for the second.

First: CC(=O)N1CCN(c2ccc(CN3C[C@H](C)OCC(c4ccccc4)S3(=O)=O)c(F)c2)CC1 (single isomer, unassigned) [Example 29]
Second: CC(=O)N1CCN(c2ccc(CN3C[C@@H](C)OCC(c4ccccc4)S3(=O)=O)c(F)c2)CC1 (single isomer, unassigned) [Example 30]
The IC50 of the first is 4.5-fold lower: 24 nM for the first, 107 nM for the second.

First: CC(=O)N1CCN(c2ccc(CN3C[C@@H](C)OCC(c4ccccc4)S3(=O)=O)c(F)c2)CC1 (single isomer, unassigned) [Example 31]
Second: CC(=O)N1CCN(c2ccc(CN3CC(C)CC(c4ccccc4)S3(=O)=O)c(F)c2)CC1 (single isomer, unassigned) [Example 68, 1-{4-[3-Fluoro-4-(4-methyl-1,1-dioxo-6-phenyl-[1,2]thiazinan-2-ylmethyl)-phenyl]-piperazin-1-yl}-ethanone]
The IC50 of the first is 1.8-fold higher: 717 nM for the first, 403 nM for the second.

First: C[C@H]1CCC(c2ccccc2)S(=O)(=O)N1Cc1ccc(OC2CCN(S(C)(=O)=O)CC2)cc1F (single isomer, unassigned) [Example 32]
Second: C[C@H]1CCC(c2ccccc2)S(=O)(=O)N1Cc1ccc(OC2CN(S(C)(=O)=O)C2)cc1F (single isomer, unassigned) [Example 36]
The IC50 of the first is 4.2-fold lower: 17 nM for the first, 71 nM for the second.

Going from C[C@H]1CCC(c2ccccc2)S(=O)(=O)N1Cc1ccc(OC2CCN(S(C)(=O)=O)CC2)cc1F (single isomer, unassigned) [Example 33] to C[C@H]1CCC(c2ccccc2)S(=O)(=O)N1Cc1ccc(OC2CN(S(C)(=O)=O)C2)cc1F (single isomer, unassigned) [Example 37], the IC50 rises from 13 nM to 194 nM (15-fold). The first is the more potent here.

First: C[C@H]1CCC(c2ccccc2)S(=O)(=O)N1Cc1ccc(OC2CCN(S(C)(=O)=O)CC2)nc1 (single isomer, unassigned) [Example 34]
Second: C[C@@H]1CCC(c2ccccc2)S(=O)(=O)N1Cc1ccc(OC2CCN(S(C)(=O)=O)CC2)nc1 (single isomer, unassigned) [Example 50]
The IC50 of the first is 4.1-fold higher: 686 nM for the first, 168 nM for the second. The second is the more potent here.

C[C@H]1CCC(c2ccccc2)S(=O)(=O)N1Cc1ccc(OC2CCN(S(C)(=O)=O)CC2)nc1 (single isomer, unassigned) [Example 35] and C[C@@H]1CCC(c2ccccc2)S(=O)(=O)N1Cc1ccc(OC2CCN(S(C)(=O)=O)CC2)nc1 (single isomer, unassigned) [Example 51] are within 1.5-fold of each other in IC50: 1100 nM for the first, 1400 nM for the second.

Compared with C[C@H]1CCC(c2ccccc2)S(=O)(=O)N1Cc1ccc(OC2CCS(=O)(=O)CC2)cc1F (single isomer, unassigned) [Example 38], CS(=O)(=O)N1CCC(Oc2ccc(CN3CCCC(c4ccccc4)S3(=O)=O)c(F)c2)CC1 (single isomer, unassigned) [Example 54, 2-(2-fluoro-4-((1-(methylsulfonyl)piperidin-4-yl)oxy)benzyl)-6-phenyl-1,2-thiazinane 1,1-dioxide] is 3.6-fold lower in IC50: 135 nM for the first, 37 nM for the second. The second is the more potent here.

C[C@H]1CCC(c2ccccc2)S(=O)(=O)N1Cc1ccc(OC2CCS(=O)(=O)CC2)cc1F (single isomer, unassigned) [Example 39] and CS(=O)(=O)N1CCC(Oc2ccc(CN3CCCC(c4ccccc4)S3(=O)=O)c(F)c2)CC1 (single isomer, unassigned) [Example 55, 2-(2-fluoro-4-((1-(methylsulfonyl)piperidin-4-yl)oxy)benzyl)-6-phenyl-1,2-thiazinane 1,1-dioxide] are within 1.5-fold of each other in IC50: 119 nM for the first, 86 nM for the second.

First: CC(=O)N1CCN(c2ccc(CN3[C@@H](C)CCC(c4ccccc4)S3(=O)=O)cc2)CC1 (single isomer, unassigned) [Example 40]
Second: CC(=O)N1CCN(c2ccc(CN3[C@H](C)CCC(c4ccccc4)S3(=O)=O)cc2)CC1 (single isomer, unassigned) [Example 47]
The IC50 of the first is 3.7-fold lower: 81 nM for the first, 299 nM for the second. The first is the more potent here.

First: CC(=O)N1CCN(c2ccc(CN3[C@@H](C)CCC(c4ccccc4)S3(=O)=O)cc2)CC1 (single isomer, unassigned) [Example 41]
Second: C[C@H]1CCC(c2ccccc2)S(=O)(=O)N1Cc1ccc(N2CCN(C(=O)C3CC3)CC2)cc1 (single isomer, unassigned) [Example 60]
The IC50 of the first is 8.4-fold higher: 126 nM for the first, 15 nM for the second.

Going from CC(=O)N1CCN(c2ccc(CN3[C@@H](C)CCC(c4ccccc4)S3(=O)=O)cn2)CC1 (single isomer, unassigned) [Example 42] to CC(=O)N1CCN(c2ccc(CN3[C@H](C)CCC(c4ccccc4)S3(=O)=O)cn2)CC1 (single isomer, unassigned) [Example 48], the IC50 rises from 837 nM to 1500 nM (1.8-fold). The first is the more potent here.

First: CC(=O)N1CCN(c2ccc(CN3[C@@H](C)CCC(c4ccccc4)S3(=O)=O)cn2)CC1 (single isomer, unassigned) [Example 43]
Second: CC(=O)N1CCN(c2ccc(CN3[C@H](C)CCC(c4ccccc4)S3(=O)=O)cn2)CC1 (single isomer, unassigned) [Example 49]
The IC50 of the first is 3.7-fold lower: 1500 nM for the first, 5500 nM for the second. The first is the more potent here.

Going from C[C@H]1CCC(c2ccccc2)S(=O)(=O)N1Cc1ccc(OC2CCN(S(C)(=O)=O)CC2)cc1 (single isomer, unassigned) [Example 44] to C[C@H]1CCC(c2ccccc2)S(=O)(=O)N1Cc1ccc(N2CCN(C(=O)C3CC3)CC2)cc1 (single isomer, unassigned) [Example 61], the IC50 rises from 14 nM to 61 nM (4.4-fold).

Compared with C[C@H]1CCC(c2ccccc2)S(=O)(=O)N1Cc1ccc(OC2CCN(S(C)(=O)=O)CC2)cc1 (single isomer, unassigned) [Example 45], CS(=O)(=O)N1CCC(Oc2ccc(CN3CCOCC(c4ccccc4)S3(=O)=O)c(F)c2)CC1 (single isomer, unassigned) [Example 56, 5-(2-fluoro-4-((1-(methylsulfonyl)piperidin-4-yl)oxy)benzyl)-3-phenyl-1,4,5-oxathiazepane 4,4-dioxide] is 4.3-fold higher in IC50: 22 nM for the first, 94 nM for the second. The first is the more potent here.

CS(=O)(=O)N1CCC(Oc2ccc(CN3CCOCC(c4ccccc4)S3(=O)=O)c(F)c2)CC1 (single isomer, unassigned) [Example 57, 5-(2-fluoro-4-((1-(methylsulfonyl)piperidin-4-yl)oxy)benzyl)-3-phenyl-1,4,5-oxathiazepane 4,4-dioxide] and C[C@H]1CCC(c2ccccc2)S(=O)(=O)N1Cc1ccc(N2CCN(C(=O)C3CC3)CC2)cc1F (single isomer, unassigned) [Example 58] are the same in IC50: 14 nM for the first, 14 nM for the second.

First: C[C@H]1CCC(c2ccccc2)S(=O)(=O)N1Cc1ccc(N2CCN(C(=O)C3CC3)CC2)cc1F (single isomer, unassigned) [Example 59]
Second: C[C@H]1CCC(c2ccccc2)S(=O)(=O)N1Cc1ccc(N2CCN(C(=O)CC#N)CC2)cc1F (single isomer, unassigned) [Example 69]
The IC50 of the first is 6.9-fold lower: 15 nM for the first, 103 nM for the second. The first is the more potent here.

First: CC(=O)N1CCN(c2ccc(CN3[C@@H](C)CC(c4ccccc4)S3(=O)=O)c(F)c2)CC1 (single isomer, unassigned) [Example 63]
Second: CC(=O)N1CCN(c2ccc(CN3[C@H](C)CC(c4ccccc4)S3(=O)=O)c(F)c2)CC1 (single isomer, unassigned) [Example 65]
The IC50 of the first is 4-fold lower: 570 nM for the first, 2300 nM for the second. The first is the more potent here.

Compared with CC(=O)N1CCN(c2ccc(CN3[C@@H](C)CC(c4ccccc4)S3(=O)=O)c(F)c2)CC1 (single isomer, unassigned) [Example 64], CC(=O)N1CCN(c2ccc(CN3[C@H](C)CC(c4ccccc4)S3(=O)=O)c(F)c2)CC1 (single isomer, unassigned) [Example 66] is 2.3-fold lower in IC50: 709 nM for the first, 310 nM for the second. The second is the more potent here.

First: C[C@H]1CCC(c2ccccc2)S(=O)(=O)N1Cc1ccc(N2CCN(C(=O)CC#N)CC2)cc1F (single isomer, unassigned) [Example 71]
Second: C[C@H]1CCC(c2ccccc2)S(=O)(=O)N1Cc1ccc(N2CCN(C(=O)CCC#N)CC2)cc1F (single isomer, unassigned) [Example 72]
The IC50 of the first is 1.6-fold lower: 41 nM for the first, 64 nM for the second.

First: C[C@H]1CCC(c2ccccc2)S(=O)(=O)N1Cc1ccc(N2CCN(C(=O)CCC#N)CC2)cc1F (single isomer, unassigned) [Example 73]
Second: COCC(=O)N1CCN(c2ccc(CN3[C@@H](C)CCC(c4ccccc4)S3(=O)=O)c(F)c2)CC1 (single isomer, unassigned) [Example 74]
The IC50 of the first is 16-fold higher: 466 nM for the first, 29 nM for the second.

Going from COCC(=O)N1CCN(c2ccc(CN3[C@@H](C)CCC(c4ccccc4)S3(=O)=O)c(F)c2)CC1 (single isomer, unassigned) [Example 75] to CO[C@@H](C)C(=O)N1CCN(c2ccc(CN3[C@@H](C)CCC(c4ccccc4)S3(=O)=O)c(F)c2)CC1 (single isomer, unassigned) [Example 76], the IC50 falls from 167 nM to 31 nM (5.4-fold). The second is the more potent here.

Compound CO[C@@H](C)C(=O)N1CCN(c2ccc(CN3[C@@H](C)CCC(c4ccccc4)S3(=O)=O)c(F)c2)CC1 (single isomer, unassigned) [Example 77] has an IC50 of 138 nM.
